Reference: patent US12296023B2, “Chemically and photochemically initiated cell membrane blebbing to induce cell vesicle production, modifications thereof, and uses thereof” (The Regents of the University of California, priority 2018, dated 2025)

How the values were obtained:
[1] = tested on: E.G7-OVA cells; assay: Tumor challenge study after vaccination; format: in vivo, C57BL/6 mice; conditions: for tumor growth: s.c. vaccination plus booster, 300,000 E.G7-OVA cells s.c.; for survival: tumor challenge
Procedure: Tumor challenge study. 12 wk.-old C57BL/6 mice (Charles River Laboratories, Wilmington, MA) were vaccinated by s.c. injection with DPBS, OVA protein, SIINFEKL peptide, SIINFEKL-presenting BDMCs, or SIINFEKL-presenting BMDC mICVs. With the exception of the control (DPBS) group, each group received vaccinations that were equivalent to a dosage of 100 μL of 50 μM SIINFEKL as quantified by CPRG assay. Vaccinations were given twice 14 days apart. 7 days after the second injection, mice were injected s.c. with 300,000 E.G7-OVA cells in the right flank. Tumor growth was monitored by measuring the tumor size with calipers every 48 h.
Mice received a single vaccination followed by a booster vaccination two weeks later). Seven days after completion of a vaccination schedule. mice were challenged with E.G7-OVA cells and tumor growth was assessed over four weeks. FIG. 72 provides images from Day 30 of the tumor challenge with mice by vaccine category. […] The foregoing tumor challenge result indicates promise for use of antigenic ICVs as effective cancer vaccines.

[2] = tested on: HeLa cells; assay: AlPcS2A photoinitiated induced cell vesicle production (670 nm laser); format: cell-based, human; conditions: 1 ug/mL for 24 h then light, vs light alone
Procedure: Protocol for Photoinitiated induced cell vesicle production: HeLa cells were plated at 70% confluency (6×10^6 cells/100 mm cell culture plate) and incubated for 4 h at 37° C. and 5% CO2. Cells were then imaged to confirm adherence to the plate and, in the dark, media was changed to media containing 1 ug/mL of the photosensitizer aluminum disulfonated phthalocyanine (AlPcS2A) (10 mL of photosensitizer media per 100 mm each plate). Plates were wrapped in tinfoil and allowed to incubate for 24 h at 37° C. and 5% CO2. In the dark, the photosensitive media was removed and cells were washed three times with 10 mL of 1×DPBS. Then, 6 mL of 1×DPBS was added to each 100 mm plate and the plates were subjected to a 670 nm laser for varying time doses (10 min, 5 min, 2.5 min, 1.25 min). Cells were imaged using a standard inverted light microscope, and the DPBS solution containing ICVs was collected. 6 mL of fresh 1×DPBS was added to each 100 mm plate and the plates were incubated at 37° C. and 5% CO2 for 18 h to investigate ICV formation effects over time. Cells were imaged using a standard inverted light microscope and the DPBS solution containing ICVs was collected. […]
(§1) Characterization of mICVs and nICVs: mICVs and nICVs were imaged using a bright field microscope and inverted light microscope. The sizing of produced ICVs were measured by using dynamic light scattering (DLS). […]

[3] = tested on: HeLa cells; assay: N-ethylmaleimide induced cell vesicle production time course; format: cell-based, human; conditions: 2 mM NEM in 1×DPBS; 1 h, 3 h, 5 h, 8 h, 24 h
Procedure: Protocol for N-ethylmaleimide induced cell vesicle production: HeLa cells were plated at 70% confluency (6×10^6 cells/100 mm cell culture plate) and incubated for 4 h at 37° C. and 5% CO2. Media was removed and cells were washed three times with 10 mL of 1×DPBS. […] Cells were imaged using a standard inverted light microscope and DPBS solution containing ICVs were collected, isolated, and analyzed by dynamic light scattering (DLS) for size.
Protocol for nano- and microscale induce cell vesicle isolation: Cells and debris were removed by centrifugation at 1200 rpm for 5.5 min, repeated three times, each time collecting supernatant into a clean tube. Then, mICVs were isolated from the supernatant by centrifugation at 16,000×g for 10 min. After the first spin, supernatant was collected for nICV isolation while micro ICV pellets were washed with 1×DPBS. This was repeated two additional times, discarding supernatant and washing the mICV pellet with 1×DPBS. nICVs were isolated using 100 kDa Amicon® ultrafiltration at 3300×g for 15 min, repeated three times with 1×DPBS washes. Final mICVs and nICVs collected were suspended in 100 uL 1×DPBS and then characterized.
as §1

[4] = tested on: AAV isolate from lysate; assay: Transduction of NEM-treated AAV from producer cell lysate; format: cell-based, AAV2
[5] = tested on: stock AAV; assay: Transduction of NEM-treated stock AAV; format: cell-based, AAV2

Molecule: OVA: OVA protein vaccination control
- tumor growth [1]: rapidly developed tumors
- survival [1]: died prior to day 35

Molecule: aluminum disulfonated phthalocyanine [AlPcS2A]
- yield of nICVs and mICVs [2]: greatly increased the yield of nICVs and mICVs

Molecule: CCN1C(=O)C=CC1=O [NEM, N-ethylmaleimide]
- formation of nICVs [3]: induced the formation of nICVs at each time point
- transduction of AAV isolate from lysate ([4]; NEM exposure 8 hours vs 0-minute timepoint): about half the transduction
- transduction of AAV isolate from lysate ([4]; NEM exposure up to 4 hours): only a minimal drop in transduction
- stock AAV transduction efficiency ([5]; NEM incubation 10 minutes): reducing the transduction efficiency
- stock AAV transduction ([5]; NEM incubation 2 hours): almost no transduction

Molecule: SIINFEKL [antigen peptide vaccination control]
- tumor growth [1]: rapidly developed tumors
- survival [1]: died prior to day 35
